Measured values taken from US12291537B2, “Compounds, compositions and methods” (priority 2022, dated 2025).
pIC50: −log10 of the molar value. Square brackets hold non-standard residues; d marks the D form. Peptide text beside a SMILES is read from it. * marks the point of attachment. Dolaproine = CO[C@@H]([C@@H]1CCCN1)[C@@H](C)C(=O)O; Dil = CC[C@H](C)[C@H](NC)[C@@H](CC(=O)O)OC; X1 = C[C@@H](N*)[C@@H](O)c1ccccc1; NMeV = CN[C@H](C(=O)O)C(C)C

Experiments:
Assay type in all cases: cell-based
[1] = system: HT-29 (colorectal cancer) cells; test: Cytotoxicity testing of compounds (cell titer-Glo)
Procedure: (§1) They were then incubated at 37° C., 5% CO2 for overnight. […] After 5 days, 30 μL cell titer-Glo Luminescent buffer was added to each well and the plate was incubated for 20 min at room temperature. Luminescence signal was detected by the Envison microplatereader.

MDA-MB-468 (TNBC) cells = test: Cytotoxicity testing of compounds (cell titer-Glo)
Procedure: as §1

A549, a NSCLC cell line = test: Cytotoxicity testing of compounds (cell titer-Glo), second round; conditions: A549, second round (Table 2)
Procedure: (§2) HT-29 (colorectal cancer) and MDA-MB-468 (TNBC) cells were harvested and seeded with 3000 cell per well into 96-well cell culture plates respectively. They were then incubated at 37° C., 5% CO2 for overnight. Each compound was diluted 3-fold from 500 nM, and added to each well respectively. After 5 days, 30 μL cell titer-Glo Luminescent buffer was added to each well and the plate was incubated for 20 min at room temperature. Luminescence signal was detected by the Envison microplatereader.
(§3) In a second round of testing, C-2a and C-2b, along with 6 other compounds (C-1a, C-1b, C-3a, C-3b, C-5a, and C-4a) were tested with the same cell lines plus A549, a NSCLC cell line.

[2] = system: HT-29, MDA-MB-468 and A549 cells; test: Cytotoxicity testing of compounds, text statements over the cell lines; conditions: first round; HT-29 and MDA-MB-468
Procedure: as §2, §3

[3] = Cytotoxicity testing of compounds (cell titer-Glo), second round; conditions: human
Procedure: as §2, §3

[4] = Cytotoxicity testing of compounds (cell titer-Glo); conditions: human, Min cell viability
Procedure: as §1

[5] = HT29, first round (Table 1), 5 days
[6] = Homo sapiens, second round (Table 2)
[7] = Homo sapiens, HT-29, 120 h, HT29, first round (Table 1), 5 days
[8] = Homo sapiens, HT-29, HT29, second round (Table 2)
[9] = Homo sapiens, 120 h, first round (Table 1), 5 days

Row | SMILES | inhibition of cells proliferation [2] | pIC50 (MDA-MB-468 (TNBC) cells; [6]) | viability at 5 days [3] | pIC50 (A549, a NSCLC cell line; Homo sapiens) | pIC50 [1, 8] | further results
1 | CC[C@@]1(O)C(=O)OCc2c1cc1n(c2=O)Cc2c-1nc1cc(F)c(C)c3c1c2[C@@H](NC(=O)CO)CC3 [DXD, reference compound] | inhibited cells proliferation in a concentration-dependent manner |  |  |  |  | pIC50 [1, 5]: 7.60; Min cell viability [1, 5]: 4.0; pIC50 ([1]; HT29, second round (Table 2)): 6.98; Min cell viability ([1]; HT29, second round (Table 2)): 11.4; pIC50 (MDA-MB-468 (TNBC) cells; first round (Table 1), 5 days): 8.49; Min cell viability (MDA-MB-468 (TNBC) cells; first round (Table 1), 5 days): 1.2; pIC50 (MDA-MB-468 (TNBC) cells; second round (Table 2)): 8.38; Min cell viability (MDA-MB-468 (TNBC) cells; second round (Table 2)): 4.1; pIC50 (A549, a NSCLC cell line): 6.90; Min cell viability (A549, a NSCLC cell line): 28.4
2 | CC[C@@]1(O)C(=O)OCc2c1cc1n(c2=O)Cc2c-1nc1cc(F)c(C(C)C)c3c1c2[C@@H](N)CC3 [Compound C-3b] |  | 7.75 | 30.6% | 6.94 |  | 
3 | CCc1c(F)cc2nc3c(c4c2c1CC[C@@H]4N)Cn1c-3cc2c(c1=O)COC(=O)[C@]2(O)CC [Compound C-2b] | inhibited cells proliferation in a concentration-dependent manner | 8.28 | 23.6% | 7.62 | ~7.28 | viability at 5 days [4]: 1.9%; pIC50 [1, 7]: 8.25; Min cell viability ([1]; human, 5 days): 3.7; pIC50 (MDA-MB-468 (TNBC) cells; [9]): 9.00
4 | CC[C@@]1(O)C(=O)OCc2c1cc1n(c2=O)Cc2c-1nc1cc(F)c(C)c3c1c2CC[C@@H]3N [Compound C-1a] |  | 8.44 | 20.3% | 7.78 | 7.68 | 
5 | CCc1c(F)cc2nc3c(c4c2c1CC[C@H]4N)Cn1c-3cc2c(c1=O)COC(=O)[C@]2(O)CC [Compound C-2a] | inhibited cells proliferation in a concentration-dependent manner | 8.25 | 19.7% | 7.72 | 7.40 | viability at 5 days [4]: 4.6%; pIC50 [1, 7]: 8.24; Min cell viability ([1]; human, 5 days): 4.8; pIC50 (MDA-MB-468 (TNBC) cells; [9]): 8.80
6 | CC[C@@]1(O)C(=O)OCc2c1cc1n(c2=O)Cc2c-1nc1cc(F)c(C)c3c1c2[C@H](Nc1cccc(CN)c1)CC3 [Compound C-4a] |  | 6.94 | 83% |  |  | 
7 | CC[C@@]1(O)C(=O)OCc2c1cc1n(c2=O)Cc2c-1nc1cc(F)c(C)c3c1c2CC(N)C3 (mixture of isomers) [Compound C-5a] |  | 8.62 | 19.4% | 7.66 | 7.58 | 
8 | CC[C@@]1(O)C(=O)OCc2c1cc1n(c2=O)Cc2c-1nc1cc(F)c(C(C)C)c3c1c2[C@H](N)CC3 [Compound C-3a] |  | 8.06 | 23.8% | 7.44 | 7.12 | 
9 | CC[C@H](C)[C@@H]([C@@H](CC(=O)N1CCC[C@H]1[C@H](OC)[C@@H](C)C(=O)N[C@H](C)[C@@H](O)c1ccccc1)OC)N(C)C(=O)[C@@H](NC(=O)[C@@H](NC)C(C)C)C(C)C [MMAE, reference compound] (H-[NMeV]V[Dil][Dolaproine]-X1) | inhibited cells proliferation in a concentration-dependent manner |  |  |  |  | pIC50 [1, 5]: ~9.30; Min cell viability [1, 5]: 21.3; pIC50 ([1]; HT29, second round (Table 2)): 8.96; Min cell viability ([1]; HT29, second round (Table 2)): 35.5; pIC50 (MDA-MB-468 (TNBC) cells; first round (Table 1), 5 days): 10.00; Min cell viability (MDA-MB-468 (TNBC) cells; first round (Table 1), 5 days): 4.6; pIC50 (MDA-MB-468 (TNBC) cells; second round (Table 2)): 9.52; Min cell viability (MDA-MB-468 (TNBC) cells; second round (Table 2)): 6.3; pIC50 (A549, a NSCLC cell line): 8.70
10 | CC[C@@]1(O)C(=O)OCc2c1cc1n(c2=O)Cc2c-1nc1cc(F)c(C)c3c1c2CC[C@H]3N [Compound C-1b] |  | 8.51 | 14.5% | 7.86 | 7.73 | 
